From PMC8791944, “GLUT3 inhibitor discovery through in silico ligand screening and in vivo validation in eukaryotic expression systems” (Scientific Reports, 2022)

Tests used:
Format in all cases: cell-based
[1] = test system: U937 leukemia cells; experiment: MTT cancer cell viability assay, U937; conditions: U937, 48 h
Protocol: (§1) A possible therapeutic application of GLUT3 inhibitors is in oncology, especially for cancers in which GLUT3 is a poor prognosis marker. We tested the effect of GLUT3 inhibitors on the cell viability of several different cancer lines: myeloid leukemia (HL60 and U937), lung cancer (A549), colorectal adenocarcinoma (Caco-2), breast cancer (MCF7), hepatocellular carcinoma (HepG2), and choriocarcinoma (BeWo) cells. GLUT3 inhibitors, at five different concentrations, ranging from 2 to 100 µM, were incubated with cancer cells for 48 h. Then, cell viability was assessed with the MTT assay. […] G3iC and G3iD also affected the leukemia cell lines but at double the concentrations of G3iB and G3iE. […] G3iB had some cytotoxic activity (CC50 < 50 µM) against the highest number of cancer cell lines (HL60, U937, A549, HepG2, and MCF7).
(§2) Cancer cell viability in the presence of GLUT3 inhibitors was assayed using the MTT Cell Viability Kit (Biotium Inc, Freemont, CA) according to manufacturer’s instructions. Cancer cells were grown in the corresponding medium, at 37 °C and 5% CO2 in a humidified incubator. The media (Gibco) for leukemia cells (HL60 and U937), A549, MCF7, BeWo, and HepG2 cells were RPMI 1640, Ham’s F-12K, DMEM:F-12, Ham’s F-12K, and EMEM, respectively, all supplemented with 10% (v/v) fetal bovine serum (HyClone). Caco-2 cells were grown in EMEM supplemented with 20% (v/v) fetal bovine serum. Cells were detached from the culture flasks with Accutase (Innovative Cell Technologies, Inc., San Diego, CA) according to manufacturer’s instructions. Cells were seeded in 96-well plates, at a density of ~ 30,000 cells/well (in 100 µl fresh media) and incubated with varying concentrations of GLUT3 inhibitors for 48 h, at 37 °C and 5% CO2 in a humidified incubator. The inhibitors were dissolved in DMSO, at 100× the final concentration, so that 1 µl of the stock inhibitor concentration was added per well, making the final DMSO concentration 1% (v/v). Therefore, controls for 100% cell viability were cells with 1% (v/v) DMSO without the inhibitors. Controls for 0% cell viability were cells treated with 0.3% (v/v) Tween 20. For MTT assay, 10 µl of MTT reagent was added in each well followed by 3–4 h incubation at 37 °C and 5% CO2 in a humidified incubator. After thoroughly mixing in 200 µl DMSO in each well, the plates were put into a plate reader (BioTek Synergy H1), and the absorbances at 570 nm and 630 nm were measured with Gen5 program (BioTek Inc.). The experimental values represent Abs570 nm-Abs630 nm with each inhibitor condition and control being the average of three wells.
(§3) Supplementary Figure S8. Effect of GLUT3 inhibitors on the viability of various cancer cell lines. Cell viability was determined by MTT assay in A549 (lung cancer), BeWo (choriocarcinoma), Caco-2 (colon cancer), HepG2 (liver cancer), HL-60 (leukemia), MCF7 (breast cancer), and U937 (histiocytic lymphoma) cell lines. GLUT3 inhibitors at concentrations of 2, 5, 10, 20, 50, and 100 µM were incubated with cells in 96-well plates for 48 hours before the addition of the MTT reagent.

[2] = test system: A549 (lung cancer) cells; experiment: MTT cancer cell viability assay, A549; conditions: A549, 48 h
Protocol: as §1, §2, §3

[3] = test system: HL60 leukemia cells; experiment: MTT cancer cell viability assay, HL60; conditions: HL60, 48 h
Protocol: as §1, §2, §3

Compound | CC50 ([1]; Homo sapiens, U-937, 48 h) | CC50 ([2]; Homo sapiens) | CC50 ([3]; Homo sapiens, HL-60, 48 h) | CC50 [2] | CC50 [1] | CC50 [3]
CC(=O)Nc1ccc(S(=O)(=O)Nc2ccc(Nc3cc(N(C)C)nc(C)n3)cc2)cc1 [G3iA, N-(4-{[(4-{[6-(dimethylamino)-2-methylpyrimidin-4-yl]amino}phenyl)amino]sulfonyl}phenyl)acetamide] | > 100 µM | > 100 µM | > 100 µM |  |  | 
Cc1cccnc1OC1CCN(c2cc(N3CCCC3CO)ncn2)CC1 (stereo not shown) [G3iC] | > 50 µM | ~22 µM | 31.1 ± 3.8 µM | 21.6 ± 2.5 µM |  | 
Cc1cc(NC(=O)CCC2Cc3ccccc3NC2=O)nc(-c2ccccc2)n1 (stereo not shown) [G3iD] | > 50 µM | 32.5 ± 14.2 µM | 28.7 ± 2.1 µM |  |  | 
O=C(Nc1cccc(Cl)c1)c1cccc(NC(=O)c2cccc([N+](=O)[O-])c2)c1 [G3iE, N-{3-[(3-chloroanilino)carbonyl]phenyl}-3-nitrobenzamide] | < 20 µM | ~33 µM | < 20 µM | > 50 µM | ~18 µM | 15.7 ± 0.8 µM
Cc1ccccc1CN(Cc1nnc(C(C)(C)C)o1)c1ccc2nc(O)[nH]c2c1 [G3iF] | > 50 µM | > 100 µM | > 50 µM |  |  | 
